Consider six molecules from patent KR20100075412A, “방사성 세포 표지자” (경북대학교 산학협력단, priority 2008, dated 2010).

One data set has as its system cells [세포]. The conditions noted are these: cited from earlier work.
The nature of data set [1]: MicroPET imaging after tail vein injection of [124I]HIB. The format is in vivo. The conditions noted are these: mouse.
A further data set concerns labelled cells [표지한 세포]. Put plainly: MicroPET imaging after tail vein injection of [124I]HIB-labelled cells. The data set is classed as in vivo. The conditions noted are these: mouse, imaged for 2 h after injection, for 2 h at 18 h, and up to 66 h (about 3 days).
A further data set has as its system L6 cells. The data set can be described thus: Cell labelling with [131I]OIB / [131I]HIB, L6 cells. The format is cell-based, rat. The conditions noted are these: for cell labelling yield: L6, in PBS, centrifuged and washed several times.
The next data set concerns H9C2 cells. Put plainly: Cell labelling with [131I]OIB / [131I]HIB, H9C2 cells. The format is cell-based. The conditions noted are these: H9C2, in PBS, centrifuged and washed several times.
A further data set has as its system HeLa cells. Put plainly: Cell labelling with [131I]OIB / [131I]HIB, HeLa cells. The data set is classed as cell-based. The conditions noted are these: in PBS, centrifuged and washed several times.
A further data set relates to 4T1 cells. Put plainly: Cell labelling with [131I]OIB / [131I]HIB, 4T1 cells. The format is cell-based. The conditions noted are these: 4T1, in PBS, centrifuged and washed several times.
Another data set deals with SCC-7 cells. The data set can be described thus: Cell labelling with [131I]OIB / [131I]HIB, SCC-7 cells. The data set is classed as cell-based. The conditions noted are these: SCC-7, in PBS, centrifuged and washed several times.
Data set [2] relates to rat cardiomyocytes L6 [랫트(rat) 심근세포 L6]. Put plainly: Gamma camera imaging of labelled L6 cells transplanted into rat myocardium. The conditions noted are these: L6 labelled for 2 h, transplanted directly into rat myocardium. The data set is classed as in vivo.
Data set [3] relates to cells with introduced L6-NIS/GFP reporter [L6-NIS/GFP 리포터가 이입된 세포]. The data set can be described thus: Gamma camera and GFP imaging of labelled L6-NIS/GFP cells injected subcutaneously in nude mice. The format is in vivo, nude mouse.

Where two headings read alike, the source gives them in different places. Some results are limits rather than exact numbers.

Take `OC[C@H]1OC(O)[C@H]([18F])[C@@H](O)[C@@H]1O` (stereo partly drawn) [[18F]FDG, 2-[18F]fluoro-2-deoxy-D-glucose]: the “release of label from cells” value with cells [세포] is given as “수 시간 후에 세포에서 떨어져 나와”.
In the case of `O=C(ON1C(=O)CCC1=O)c1ccc([18F])cc1` [[18F]FSB, N-succimidyl-4-[18F]fluorobenzoate], the “loss of label from cells” value in the data set with cells [세포] (according to previous results) is listed as “알킬레이트된 부분이 신진 대사로 방출되면서 세포에서 표지자가 빠져나가는 것으로 여겨진다”.
Consider `CNC(=S)NN=CC(C)=NNC(=S)NC.[64Cu]` [[64Cu]PTSM, [64Cu]pyruvaldehyde-bis-(n4-methyl-thiosemicarbazone)], for which the “release of label from cells” value in the data set on cells [세포] (after incubation with cells) was “수 시간 후에 세포에서 떨어져 나와”. Also, the “duration of cell labelling” value in the data set on cells [세포] (compared with other F-18/Cu-64 labelling) is given as “좀 더 장기간 세포 표지가 가능하였다”.
For `CCCCCCCCCCCCCCCCOC(=O)c1ccc([124I])cc1` [[124I]HIB], in data set [1], the “accumulation in thyroid and bladder (microPET)” value was “갑상선과 방광 부위에 [124I]HIB가 축적되는 것을 확인”; the “accumulation of activity in liver (microPET)” value is “간 위치에 활성도가 축적”. Moreover, the excretion route entry in data set [1] (inferred from liver activity) is “간을 통하여 배출되는 것으로 여겨진다”. For the same molecule, the “time up to which labelled cells were seen accumulated in lung (microPET)” value in the data set with labelled cells [표지한 세포] was found to be 66 h.
On to `CCCCCCCCCCCCCCCCOC(=O)c1ccc([131I])cc1` [[131I]HIB], for which the cell labelling yield in the data set on L6 cells, in the data set on H9C2 cells, in the data set with HeLa cells, in the data set with 4T1 cells and in the data set with SCC-7 cells was not below 20% throughout.
As to `CCCCCCCC/C=C\CCCCCCCCOC(=O)c1ccc([131I])cc1` [[131I]OIB], the cell labelling yield in the data set on L6 cells, in the data set on H9C2 cells, with HeLa cells, with 4T1 cells and in the data set with SCC-7 cells was not below 20% in each case. In addition, in the data set on L6 cells ([131I]OIB 136 μCi, 4x10^5 L6 cells in serum-free medium, room temperature, 30 min, washed twice with PBS), the cell labelling efficiency was found to be 26%. For the same molecule, in [2], the “period over which transplanted labelled cells were imaged by gamma camera” value is 2 weeks. In data set [3] (1x10^7 [131I]OIB-labelled cells s.c. in each thigh and shoulder of nude mouse), the “time up to which GFP imaging was measurable” value is listed as 14 days. Further, the “time up to which labelled cells were visible by gamma camera” value in [3] (1x10^7 cells s.c. in each thigh and shoulder of nude mouse, gamma camera day 1 to 14) is 14 days.
